What all share (assay type): binding
Assay [1] addresses T1, Bacillus anthracis DHPS (BaDHPS) (Bacillus anthracis, UniProt Q81VW8).
For another assay, the target named is BSA (Bos taurus, UniProt P02769). Kind of assay: Incubation of probe in 1% BSA monitored by FP. The settings on record: FP absorbance significantly reduced.
Assay [2] addresses T1, Bacillus anthracis DHPS (BaDHPS). The source holds these as a separate data set.

Five compounds from PMC3384522 (Bioconjugate Chemistry, 2011) can be followed below.

Molecules are shown by their SMILES.

T1 sequence (Q81VW8 1-280): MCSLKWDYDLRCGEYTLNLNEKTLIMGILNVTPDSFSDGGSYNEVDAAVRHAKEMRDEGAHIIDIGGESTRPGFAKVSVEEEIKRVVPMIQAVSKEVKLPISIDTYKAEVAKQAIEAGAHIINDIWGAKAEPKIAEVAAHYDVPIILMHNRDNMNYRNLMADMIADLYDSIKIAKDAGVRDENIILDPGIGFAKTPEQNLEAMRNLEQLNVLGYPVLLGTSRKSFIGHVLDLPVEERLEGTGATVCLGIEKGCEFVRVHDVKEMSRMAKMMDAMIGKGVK
Chain of BSA (P02769 25-607): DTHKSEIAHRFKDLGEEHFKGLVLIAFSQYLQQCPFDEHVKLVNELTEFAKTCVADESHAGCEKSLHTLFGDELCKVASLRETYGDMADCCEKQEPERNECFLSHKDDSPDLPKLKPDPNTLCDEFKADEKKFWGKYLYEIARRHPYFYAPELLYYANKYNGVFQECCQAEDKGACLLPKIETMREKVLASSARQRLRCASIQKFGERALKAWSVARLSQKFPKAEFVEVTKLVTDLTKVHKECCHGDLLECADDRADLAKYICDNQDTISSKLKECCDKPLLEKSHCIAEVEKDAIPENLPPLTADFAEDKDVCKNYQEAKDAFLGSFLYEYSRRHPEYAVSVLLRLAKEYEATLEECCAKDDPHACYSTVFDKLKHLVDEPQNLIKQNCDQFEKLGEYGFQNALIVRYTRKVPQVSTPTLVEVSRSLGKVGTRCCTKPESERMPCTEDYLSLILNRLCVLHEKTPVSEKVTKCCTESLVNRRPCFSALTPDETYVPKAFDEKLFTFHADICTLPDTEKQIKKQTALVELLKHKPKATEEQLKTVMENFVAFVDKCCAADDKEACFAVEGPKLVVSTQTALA

In the case of `Nc1ccc(S(N)(=O)=O)cc1` [SIA, sulfanilamide], in assay [1], the “Competitive displacement of FP probe 4 from BaDHPS” value was “not able to compete off the FP probe 4”. On the same count and under the same terms, the result for `Cc1cc(NS(=O)(=O)c2ccc(N)cc2)no1` [SMX, sulfamethoxazole] reads “not able to compete off the FP probe 4”. As for `Nc1nc(NCCOCCOCCNC(=O)c2ccc3c(c2)C(=O)OC32c3ccc(O)cc3Oc3cc(O)ccc32)c(N=O)c(=O)[nH]1` [compound 3], the “Non-specific protein binding (FP in 1% BSA)” value at BSA was “non-specific protein binder”. Further, in assay [2], the “Binding site N (ITC)” value turned out to be 1.59 ± 0.0108 and the “ΔH (ITC)” value was -5.9 ± 0.059 kcal/mol. With `CC(C(=O)NCCOCCOCCNC(=O)c1ccc2c(c1)C(=O)OC21c2ccc(O)cc2Oc2cc(O)ccc21)c1nn(C)c2nc(N)[nH]c(=O)c2c1=O` (centres unmarked) [compound 4, N-(2-(2-(2-(2-(7-Amino-1-methyl-4,5-dioxo-1,4,5,6-tetrahydropyridazino[3,4-d]pyrimidin-3-yl)propanamido)ethoxy)ethoxy)ethyl)-3',6'-dihydroxy-3-oxo-3H-spiro[isobenzofuran-1,9'-xanthene]-5-carboxamide], in assay [2], the “Binding site N (ITC)” value is reported as 1.09 ± 0.0464 and the “ΔH (ITC)” value is -2.8 ± 0.159 kcal/mol. In the case of `Nc1nc2ncc(CNc3ccc(C(=O)O)cc3)nc2c(=O)[nH]1` [pteroic acid], in assay [1], the “Competitive displacement of FP probe 4 from BaDHPS” value is “able to compete off the FP probe 4”.
